Patent US4137225A, “Novel chromogenic enzyme substrates” (Ab Kabi, priority 1975, dated 1979)
≈ marks a conversion by molar mass, not a printed value. Structures can show the parent of a compound that is named as a salt. Where a SMILES comes first, the peptide text is derived from it. [ ]: non-standard residue; d: D form. The star is where a group is joined. pNA = O=[N+]([O-])c1ccc(N*)cc1; Pip = O=C(O)[C@@H]1CCCCN1; Bz = O=C(c1ccccc1)*

What was measured:
[1] = target: Plasmin (Homo sapiens, UniProt P00747); experiment: Relative reaction rate of enzymatic hydrolysis of chromogenic substrates, plasmin (p-nitroaniline release at 405 nm); format: biochemical; conditions: for Rel Reaction rates, Pl (Plasmin): relative to reference substrate XVIII
Source text: (§1) The substrates prepared according to the examples above are used for determination of different enzymes according to the procedure outlined above.
(§2) The principle for the determination is based on the fact that the splitting product formed by enzymatic hydrolysis has a UV-spectrum which is essentially different from that of the substrate. Thus, e.g. all p-nitro anilide substrates according to the invention have absorption maxima around 310 nm with the molar extinction coefficient of about 12000. At 405 nm the absorption of these substrates has almost completely discontinued. p-Nitroaniline which has been split off from the substrate during the enzymatic hydrolysis has an absorption maximum at 380 nm and a molar extinction coefficient of 13200, which at 405 nm only has decreased to 9620. By spectrophotometric determination at 405 nm it is thus easy to follow the amount of p-nitroaniline formed which is proportional to the degree of the enzymatic hydrolysis which in its turn is determined by the active amount of enzyme.
(§3) In the table above the relative reaction rates for the different substrates are stated in relation to a reference substrate chosen for each enzyme. Symbols, reference substrates and their sensitivity for the respective enzymes are according to the following: […]

[2] = Solubility in buffer; format: physicochemical; conditions: aqueous buffer; Buffer = Tris, pH 8.2, I 0.15
Source text: | ^x Buffer = Tris, pH 8.2, I 0.15

[3] = test system: Kallikrein; experiment: Relative reaction rate of enzymatic hydrolysis of chromogenic substrates, kallikrein (p-nitroaniline release at 405 nm); format: biochemical; conditions: for Rel Reaction rates, Kal (Kallikrein): relative to reference substrate XVI
Source text: as §1, §2, §3

[4] = target: Urokinase (Homo sapiens, UniProt P00749); experiment: Relative reaction rate of enzymatic hydrolysis of chromogenic substrates, urokinase (p-nitroaniline release at 405 nm); format: biochemical; conditions: for Rel Reaction rates, UK (Urokinase): relative to reference substrate XIV
Source text: as §1, §2, §3

[5] = test system: Thrombin; experiment: Relative reaction rate of enzymatic hydrolysis of chromogenic substrates, thrombin (p-nitroaniline release at 405 nm); format: biochemical; conditions: for Rel Reaction rates, T (Thrombin): relative to reference substrate XIV
Source text: as §1, §2, §3

[6] = test system: Trypsin; experiment: Relative reaction rate of enzymatic hydrolysis of chromogenic substrates, trypsin (p-nitroaniline release at 405 nm); format: biochemical; conditions: for Rel Reaction rates, Try (Trypsin): relative to reference substrate XIII
Source text: as §1, §2, §3

Sequence of Plasmin (P00747 97-810): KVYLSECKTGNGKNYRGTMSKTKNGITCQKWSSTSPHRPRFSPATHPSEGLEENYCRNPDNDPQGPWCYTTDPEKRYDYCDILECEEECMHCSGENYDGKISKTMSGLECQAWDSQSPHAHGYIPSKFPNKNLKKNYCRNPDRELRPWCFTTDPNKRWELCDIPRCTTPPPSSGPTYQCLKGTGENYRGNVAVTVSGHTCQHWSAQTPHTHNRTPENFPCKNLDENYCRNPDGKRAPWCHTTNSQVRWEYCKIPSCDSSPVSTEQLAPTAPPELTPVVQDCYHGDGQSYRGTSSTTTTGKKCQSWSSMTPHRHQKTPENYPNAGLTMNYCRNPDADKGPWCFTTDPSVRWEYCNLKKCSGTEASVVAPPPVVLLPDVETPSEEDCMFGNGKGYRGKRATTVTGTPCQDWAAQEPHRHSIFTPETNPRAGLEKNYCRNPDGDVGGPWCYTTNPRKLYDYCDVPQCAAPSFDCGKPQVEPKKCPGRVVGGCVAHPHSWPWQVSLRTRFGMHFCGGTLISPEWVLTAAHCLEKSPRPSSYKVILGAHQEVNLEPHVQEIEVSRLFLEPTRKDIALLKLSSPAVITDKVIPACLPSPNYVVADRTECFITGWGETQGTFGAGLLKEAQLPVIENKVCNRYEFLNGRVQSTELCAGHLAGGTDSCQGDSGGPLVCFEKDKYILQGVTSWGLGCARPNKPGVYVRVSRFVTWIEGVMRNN

SMILES	Rel Reaction rates, Pl (Plasmin) [1]	solubility [2] [µg/mL]	Rel Reaction rates, Kal (Kallikrein) [3]	Rel Reaction rates, UK (Urokinase) [4]	Rel Reaction rates, T (Thrombin) [5]	Rel Reaction rates, Try (Trypsin) [6]	other results
CC[C@H](C)[C@H](NC(=O)c1ccccc1)C(=O)N[C@@H](CC(C)C)C(=O)N[C@@H](CCCNC(=N)N)C(=O)Nc1ccc([N+](=O)[O-])cc1 [Bz-Ile-Leu-Arg-pNA] (Bz-Ile-Leu-Arg-pNA)	55	200 (≈ 320 µM)	100				
CC[C@H](C)[C@H](NC(=O)c1ccccc1)C(=O)N[C@@H](CC(C)C)C(=O)N[C@@H](CCCCN)C(=O)Nc1ccc([N+](=O)[O-])cc1 [Bz-Ile-Leu-Lys-pNA] (Bz-Ile-Leu-Lys-pNA)	130	1000 (≈ 1680 µM)					
CC(C)C[C@H](NC(=O)[C@@H](NC(=O)c1ccccc1)C(C)C)C(=O)N[C@@H](CCCNC(=N)N)C(=O)Nc1ccc([N+](=O)[O-])cc1 [Bz-Val-Leu-Arg-pNA] (Bz-Val-Leu-Arg-pNA)		200 (≈ 327 µM)	100				
CC(C)C[C@H](NC(=O)[C@@H](NC(=O)c1ccccc1)C(C)C)C(=O)N[C@@H](CCCCN)C(=O)Nc1ccc([N+](=O)[O-])cc1 [Bz-Val-Leu-Lys-pNA] (Bz-Val-Leu-Lys-pNA)	100	500 (≈ 858 µM)					
CC(C)[C@H](NC(=O)c1ccccc1)C(=O)N1CCCC[C@H]1C(=O)N[C@@H](CCCNC(=N)N)C(=O)Nc1ccc([N+](=O)[O-])cc1 [Bz-Val-Pip-Arg-pNA] (Bz-Val-[Pip]-Arg-pNA)				30	4	45	
CC(C)[C@H](NC(=O)c1ccccc1)C(=O)N1CCC[C@H]1C(=O)N[C@@H](CCCNC(=N)N)C(=O)Nc1ccc([N+](=O)[O-])cc1 [Bz-Val-Pro-Arg-pNA] (Bz-Val-Pro-Arg-pNA)		300 (≈ 504 µM)		15	6	60	
CC[C@H](C)[C@H](N)C(=O)N[C@@H](CC(C)C)C(=O)N[C@@H](CCCNC(=N)N)C(=O)Nc1ccc([N+](=O)[O-])cc1 [H-Ile-Leu-Arg-pNA] (H-Ile-Leu-Arg-pNA)	10		20				
CC[C@H](C)[C@H](N)C(=O)N[C@@H](CC(C)C)C(=O)N[C@@H](CCCCN)C(=O)Nc1ccc([N+](=O)[O-])cc1 [H-Ile-Leu-Lys-pNA] (H-Ile-Leu-Lys-pNA)	35						
CC(C)C[C@H](NC(=O)[C@@H](N)C(C)C)C(=O)N[C@@H](CCCNC(=N)N)C(=O)Nc1ccc([N+](=O)[O-])cc1 [H-Val-Leu-Arg-pNA] (H-Val-Leu-Arg-pNA)			50				
CC(C)C[C@H](NC(=O)[C@@H](N)C(C)C)C(=O)N[C@@H](CCCCN)C(=O)Nc1ccc([N+](=O)[O-])cc1 [H-Val-Leu-Lys-pNA] (H-Val-Leu-Lys-pNA)	25						
CC(C)[C@H](N)C(=O)N1CCCC[C@H]1C(=O)N[C@@H](CCCNC(=N)N)C(=O)Nc1ccc([N+](=O)[O-])cc1 [H-Val-Pip-Arg-pNA] (H-Val-[Pip]-Arg-pNA)				45	4	35	
CC(C)[C@H](N)C(=O)N1CCC[C@H]1C(=O)N[C@@H](CCCNC(=N)N)C(=O)Nc1ccc([N+](=O)[O-])cc1 [H-Val-Pro-Arg-pNA] (H-Val-Pro-Arg-pNA)		40000 (≈ 81500 µM)		15	6	55	
CC(C)[C@@H](N)C(=O)N1CCC[C@H]1C(=O)N[C@@H](CCCNC(=N)N)C(=O)Nc1ccc([N+](=O)[O-])cc1 [XIII, H-D-Val-Pro-Arg-pNA . 2 HCl] (H-[dV]-Pro-Arg-pNA)		100000		95	80	100	Sensitivity (stated amount of enzyme gives the activity 0.1 nkat) ([6]; Trypsin, 0.1 nkat, ΔOD/min = 0.0254): 0.03 µg (Novo)
CC(C)[C@@H](N)C(=O)N1CCCC[C@H]1C(=O)N[C@@H](CCCNC(=N)N)C(=O)Nc1ccc([N+](=O)[O-])cc1 [XIV, H-D-Val-Pip-Arg-pNA . 2 HCl] (H-[dV]-[Pip]-Arg-pNA)				100	100	70	Sensitivity (stated amount of enzyme gives the activity 0.1 nkat) ([4]; Urokinase, 0.1 nkat, ΔOD/min = 0.0254): 40 Ploug E; Sensitivity (stated amount of enzyme gives the activity 0.1 nkat) ([5]; Thrombin, 0.1 nkat, ΔOD/min = 0.0254): 0.06 INH
CC[C@@H](C)[C@@H](N)C(=O)N[C@@H](CC(C)C)C(=O)N[C@@H](CCCNC(=N)N)C(=O)Nc1ccc([N+](=O)[O-])cc1 [XV, H-D-Ile-Leu-Arg-pNA . 2 HCl] (H-[dI]-Leu-Arg-pNA)	75	4000	100				
CC(C)C[C@H](NC(=O)[C@H](N)C(C)C)C(=O)N[C@@H](CCCNC(=N)N)C(=O)Nc1ccc([N+](=O)[O-])cc1 [XVI, H-D-Val-Leu-ARg-pNA . 2 HCl] (H-[dV]-Leu-Arg-pNA)		600000	100				Sensitivity (stated amount of enzyme gives the activity 0.1 nkat) ([3]; Kallikrein, 0.1 nkat, ΔOD/min = 0.0254): 0.2 Be
CC[C@@H](C)[C@@H](N)C(=O)N[C@@H](CC(C)C)C(=O)N[C@@H](CCCCN)C(=O)Nc1ccc([N+](=O)[O-])cc1 [XVII, H-D-Ile-Leu-Lys-pNA . 2 HCl] (H-[dI]-Leu-Lys-pNA)	100	20000					
CC(C)C[C@H](NC(=O)[C@H](N)C(C)C)C(=O)N[C@@H](CCCCN)C(=O)Nc1ccc([N+](=O)[O-])cc1 [XVIII, H-D-Val-Leu-Lys-pNA . 2 HCl] (H-[dV]-Leu-Lys-pNA)	100	> 100000					Sensitivity (stated amount of enzyme gives the activity 0.1 nkat) ([1]; Plasmin, 0.1 nkat, ΔOD/min = 0.0254): 0.01 CU
